We go through one molecule from patent US20260041649A1, “ANTI-INFLAMMATORY AGENT” (WATANABE OYSTER LABORATORY, CO., LTD., priority 2023, published 2026).

The test system of this assay is RAW264.7 cells stimulated with LPS. The assay is described as follows: Measurement of osteoclast formation (TRACP-positive MNCs). Type of assay: cell-based, mouse. As for the experimental part: Cells (1×10^5 cells/1 ml per well in a 24-well plate) were cultured for 3 days in DMEM containing 10% FBS, 1% P/S, and 1% fungizone in the control group (1% ethanol as final concentration) and in the DHMBA-treated group (0.1, 1, 10, or 100 μM) with or without LPS (100 ng/ml). The old culture medium was replaced with fresh conditioned culture medium (0.5 ml) containing LPS and/or DHMBA, and the cells were cultured for another 3 days (FIG. 9A). Cells (1×10^5 cells/1 ml per well in a 24-well plate) were cultured for 3 days in the above DMEM culture medium with LPS (100 ng/ml) but without DHMBA. […] TRACP-positive multinucleated cells (MNCs) (with 3 or more nuclei) were counted as osteoclast-like cells under a microscope (40× magnification). […]
RAW264.7 cells (1×10^5 cells/1 ml per well in a 24-well plate) were cultured for 3 days in a DMEM culture medium containing 10% FBS, 1% P/S, and 1% fungizone in the control group (1% ethanol in the culture medium as final concentration) and the LPS-treated group (100 ng/ml in the culture medium) with or without DHMBA (0.1, 1, 10, or 100 μM). […] TRACP-positive multinucleated cells (MNCs) having three or more nuclei were counted as osteoclast-like cells under a microscope (40× magnification) (Olympus MTV-3; Olympus Corp., Tokyo, Japan). […]

`COc1c(O)cc(CO)cc1O` [DHMBA, 3,5-dihydroxy-4-methoxybenzyl alcohol]: the “LPS-enhanced osteoclast formation, late stage” value (3 days LPS 100 ng/ml alone, then 3 days LPS plus DHMBA 0.1, 1, 10 or 100 μM) is “suppressed”. The LPS-enhanced osteoclast formation entry (LPS 100 ng/ml and DHMBA 0.1, 1, 10 or 100 μM together for 6 days) is listed as “suppressed”.
